What was measured:
Type in all cases: in vivo
[1] = tested on: ragweed (common ragweed, Ambrosia artemisiifolia); experiment: Test A1 preemergence, ragweed
Method in brief: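 Herbicidal response was scored on plants treated either preemergence, by directed spray onto soil of a loam–sand blend after sowing, or postemergence on potted plants at the one- to two-leaf stage, 2–10 cm high. Test chemicals were carried in a non-phytotoxic solvent mix with surfactant.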

[2] = tested on: galium (catchweed bedstraw, Galium aparine); experiment: Test A1 postemergence, galium; details: for Plant response rating, Galium: Postemergence
Method in brief: (§1)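 Test compounds were formulated in a non-phytotoxic solvent mixture containing a surfactant. For preemergence, seeds sown in a loam soil–sand blend received a directed soil spray. For postemergence, potted plants in the same soil, 2 to 10 cm tall at the one- to two-leaf stage, were sprayed.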

[3] = tested on: Pigweed, Palmer (palmer amaranth, palmer pigweed, Amaranthus palmeri); experiment: Test A1 postemergence, Pigweed, Palmer; details: for Plant response rating, Pigweed, Palmer: Postemergence
Method in brief: (§2)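 Both timings started from seed in a loam-sand blend. Preemergence pots got a directed soil application immediately; postemergence pots were sprayed when seedlings had one or two leaves and stood 2–10 cm. Each compound was prepared in a non-phytotoxic solvent plus surfactant.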

[4] = tested on: goosegrass (Eleusine indica); experiment: Test A1 postemergence, goosegrass; details: for Plant response rating, Goosegrass: Postemergence
Method in brief: as §1

[5] = tested on: ragweed (common ragweed, Ambrosia artemisiifolia); experiment: Test A1 postemergence, ragweed; details: for Plant response rating, Ragweed: Postemergence
Method in brief: as §2

[6] = 31 g ai/ha, 0 to 100 scale (0 no effect, 100 complete control)
[7] = 125 g ai/ha, 0 to 100 scale, 0 no effect, 100 complete control
[8] = 31 g ai/ha, 0 to 100 scale (0 no effect, 100 complete control), 10 days
[9] = 31 g ai/ha, postemergence, 0 to 100 scale (0 no effect, 100 complete control)
[10] = 125 g ai/ha, 0 to 100 scale (0 no effect, 100 complete control), 10 days

SMILES	Plant response rating, Ragweed [1, 6]	Plant response rating, Ragweed [1, 7]	Plant response rating, Galium [2, 8]	Plant response rating, Galium ([2]; 125 g ai/ha, 0 to 100 scale)	Plant response rating, Pigweed, Palmer [3, 8]	Plant response rating, Pigweed, Palmer ([3]; 125 g ai/ha, 0 to 100 scale)	Plant response rating, Goosegrass [4, 8]	Plant response rating, Goosegrass ([4]; 125 g ai/ha, 0 to 100 scale)	Plant response rating, Ragweed [5, 8]	Plant response rating, Ragweed ([5]; 125 g ai/ha, 0 to 100 scale)	Galium plant response rating [2, 9]	Plant response rating, Galium [2, 10]	Pigweed, Palmer plant response rating [3, 9]	Plant response rating, Pigweed, Palmer [3, 10]	Goosegrass plant response rating [4, 9]	Plant response rating, Goosegrass [4, 10]	Ragweed plant response rating [5, 9]	Plant response rating, Ragweed [5, 10]
CCc1cc(C)c(C2=NOC3(CCCC3)C2)cc1NS(=O)(=O)C(F)(F)F [Compound 311]	0	0	0	0	0	0	0	0	0	0	–	–	–	–	–	–	–	–
Cc1cc(C)c(N2CCC3(CCC(C)CC3)C2=O)cc1NS(=O)(=O)C(F)(F)F (stereo not shown) [Compound 402]	20	50	–	–	–	–	–	–	–	–	70	90	20	70	20	70	50	50
Cc1c(C(=O)N2CCCCC2)cc(NS(=O)(=O)C(F)(F)F)c(Cl)c1F [Compound 333]	0	70	70	90	40	60	0	30	0	80	–	–	–	–	–	–	–	–
Cc1cc(C2CC2)c(NS(=O)(=O)C(F)(F)F)cc1C1=NOC2(CCCC2)C1 [Compound 313]	0	0	0	30	0	10	0	0	0	0	–	–	–	–	–	–	–	–
Cc1c(C(=O)N2CCC(F)CC2)cc(N(COC(=O)C(C)(C)C)S(=O)(=O)C(F)(F)F)c(C)c1C [Compound 361]	20	90	80	90	10	20	0	30	60	80	–	–	–	–	–	–	–	–
Cc1c(C(=O)N(C)C)cc(NS(=O)(=O)C(F)(F)F)c(Cl)c1F [Compound 320]	60	70	70	90	40	80	40	0	40	80	–	–	–	–	–	–	–	–
Cc1cc(C)c(N(C(=O)OC(C)C)S(=O)(=O)C(F)(F)F)cc1C1=NOC2CCCC12 (stereo not shown) [Compound 295]	0	0	50	60	0	30	20	70	50	70	–	–	–	–	–	–	–	–
Cc1cc(C2CC2)c(C2=NOC3CCCC23)cc1NS(=O)(=O)C(F)(F)F (stereo not shown) [Compound 307]	0	60	40	60	0	40	30	80	0	80	–	–	–	–	–	–	–	–
Cc1cc(C)c(N(COC(=O)C(C)(C)C)S(=O)(=O)C(F)(F)F)cc1C1=NOC2(C)CCCC12 (stereo not shown) [Compound 341]	0	0	50	80	0	20	0	60	60	80	–	–	–	–	–	–	–	–
Cc1cc(C)c(N(COC(=O)C(C)(C)C)S(=O)(=O)C(F)(F)F)cc1C1=NOC2OCCC12 (stereo not shown) [Compound 352]	60	90	100	100	20	60	80	90	70	90	–	–	–	–	–	–	–	–
CCC1ON=C(c2cc(NS(=O)(=O)C(F)(F)F)c(C)cc2C)C1CC (stereo not shown) [Compound 343]	10	60	70	100	0	60	40	90	20	80	–	–	–	–	–	–	–	–
CCC1ON=C(c2cc(NS(=O)(=O)C(F)(F)F)c(C)cc2C)C1CC (stereo not shown) [Compound 346]	0	10	70	100	20	50	40	90	50	70	–	–	–	–	–	–	–	–
Cc1cc(C)c(N(COC(=O)C(C)(C)C)S(=O)(=O)C(F)(F)F)cc1C(=O)N1CCC(c2ccccc2)CC1 [Compound 364]	0	0	0	30	0	0	0	0	0	0	–	–	–	–	–	–	–	–
Cc1c(NS(=O)(=O)C(F)(F)F)cc(C(=O)N2CCC(F)(F)CC2)c(C)c1C [Compound 357]	0	80	90	100	0	50	0	70	80	80	–	–	–	–	–	–	–	–
COc1cc(C)c(NS(=O)(=O)C(F)(F)F)cc1C1=NOC2CCCC12 (stereo not shown) [Compound 312]	0	30	0	30	0	0	0	0	0	40	–	–	–	–	–	–	–	–
Cc1c(C(=O)N2CCC(Cl)CC2)cc(N(COC(=O)C(C)(C)C)S(=O)(=O)C(F)(F)F)c(C)c1C [Compound 359]	0	80	50	80	0	20	0	20	30	70	–	–	–	–	–	–	–	–
Cc1cc(C2CC2)c(C2=NOC3CCCC23)cc1N(COC(=O)C(C)(C)C)S(=O)(=O)C(F)(F)F (stereo not shown) [Compound 355]	0	40	40	60	0	30	0	70	60	60	–	–	–	–	–	–	–	–
CCc1cc(C)c(NS(=O)(=O)C(F)(F)F)cc1C1=NOC2CCCC12 (stereo not shown) [Compound 305]	0	20	50	60	0	40	10	80	0	60	–	–	–	–	–	–	–	–
Cc1c(NS(=O)(=O)C(F)(F)F)cc(C(=O)N(C)C)c(C)c1Cl [Compound 287]	0	80	0	0	0	40	0	60	60	70	–	–	–	–	–	–	–	–
Cc1cc(C)c(C2=NOC3CCCCCC23)cc1NS(=O)(=O)C(F)(F)F (stereo not shown) [Compound 292]	10	80	80	80	0	30	0	80	20	40	–	–	–	–	–	–	–	–
CCOC(=O)N(c1cc(C(=O)N2CCC(F)(F)CC2)c(C)cc1C)S(=O)(=O)C(F)(F)F [Compound 351]	50	90	80	100	10	20	40	90	70	90	–	–	–	–	–	–	–	–
Cc1c(C(=O)N2CCCCC2)cc(N(COC(=O)C(C)(C)C)S(=O)(=O)C(F)(F)F)c(C)c1C [Compound 329, [[(Trifluoromethyl)sulfonyl][2,3,4-trimethyl-5-(1-piperidinylcarbonyl)phenyl]amino]methyl 2,2-dimethylpropanoate]	60	70	50	80	10	10	0	30	40	70	–	–	–	–	–	–	–	–

From patent US20230278972A1, “SUBSTITUTED HALOALKYL SULFONANILIDE HERBICIDES” (FMC Corporation, priority 2020, published 2023)
